From patent US20120122860A1, “SOLID FORMS OF SULFONAMIDES AND AMINO ACIDS” (Plexxikon, Inc., priority 2009, published 2012)

Key:
B-Raf = B-Raf (Homo sapiens, UniProt P15056); assay: Kinase activity assay, B-Raf; format: biochemical; settings: read-out: activity toward kinase B-Raf, IC50
B-Raf V600E = B-Raf V600E (Homo sapiens, UniProt P15056, V600E); assay: Kinase activity assay, B-Raf V600E; format: biochemical; settings: read-out: activity toward kinase B-Raf V600E, IC50
Btk = Btk (Homo sapiens, UniProt Q06187); assay: Kinase activity assay, Btk
Kdr = Kdr (Homo sapiens, UniProt P35968); assay: Kinase activity assay, Kdr
Kit = Kit (Homo sapiens, UniProt P10721); assay: Kinase activity assay, Kit
Src = Src (Homo sapiens, UniProt P12931); assay: Kinase activity assay, Src
TEC = biological target: T1, TEC (Homo sapiens, UniProt P42680); assay: Kinase activity assay, TEC
T1 sequence (P42680 1-631): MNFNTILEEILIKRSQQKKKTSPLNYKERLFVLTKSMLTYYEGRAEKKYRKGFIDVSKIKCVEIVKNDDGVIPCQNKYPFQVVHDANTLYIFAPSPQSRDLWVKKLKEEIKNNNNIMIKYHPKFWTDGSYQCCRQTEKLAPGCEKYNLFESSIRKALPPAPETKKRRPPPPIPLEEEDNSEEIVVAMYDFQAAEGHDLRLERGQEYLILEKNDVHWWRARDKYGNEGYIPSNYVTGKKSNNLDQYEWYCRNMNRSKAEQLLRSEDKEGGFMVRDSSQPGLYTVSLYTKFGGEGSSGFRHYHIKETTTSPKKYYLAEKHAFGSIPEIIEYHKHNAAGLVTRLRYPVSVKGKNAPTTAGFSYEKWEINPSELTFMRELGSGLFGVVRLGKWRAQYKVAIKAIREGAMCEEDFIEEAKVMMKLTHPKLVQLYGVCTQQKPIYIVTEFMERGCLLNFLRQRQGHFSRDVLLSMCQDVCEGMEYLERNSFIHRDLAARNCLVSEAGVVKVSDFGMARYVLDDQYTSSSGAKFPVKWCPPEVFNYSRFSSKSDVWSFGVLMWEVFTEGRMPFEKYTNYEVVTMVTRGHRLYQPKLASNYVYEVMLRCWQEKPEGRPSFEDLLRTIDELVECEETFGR

C-Raf = C-Raf (Homo sapiens, UniProt P04049); assay: Kinase activity assay, C-Raf
Fms = Fms (Homo sapiens, UniProt P07333); assay: Kinase activity assay, Fms

Measured: IC50

Sequence of Src (P12931 whole entry): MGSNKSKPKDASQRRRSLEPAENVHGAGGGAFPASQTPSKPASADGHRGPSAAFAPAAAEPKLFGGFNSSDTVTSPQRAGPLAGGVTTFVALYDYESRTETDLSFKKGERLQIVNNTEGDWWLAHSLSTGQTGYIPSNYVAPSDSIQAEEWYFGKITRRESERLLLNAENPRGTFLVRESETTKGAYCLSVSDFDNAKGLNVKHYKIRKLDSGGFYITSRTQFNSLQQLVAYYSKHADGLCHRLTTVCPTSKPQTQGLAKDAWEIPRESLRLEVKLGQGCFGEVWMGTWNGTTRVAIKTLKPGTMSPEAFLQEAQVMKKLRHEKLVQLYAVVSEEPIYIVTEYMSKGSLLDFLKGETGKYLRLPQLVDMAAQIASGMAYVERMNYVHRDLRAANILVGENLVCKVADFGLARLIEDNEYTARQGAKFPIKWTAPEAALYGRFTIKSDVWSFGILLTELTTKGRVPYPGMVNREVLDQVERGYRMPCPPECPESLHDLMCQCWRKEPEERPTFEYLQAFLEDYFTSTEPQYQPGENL
Sequence of Btk (Q06187 whole entry): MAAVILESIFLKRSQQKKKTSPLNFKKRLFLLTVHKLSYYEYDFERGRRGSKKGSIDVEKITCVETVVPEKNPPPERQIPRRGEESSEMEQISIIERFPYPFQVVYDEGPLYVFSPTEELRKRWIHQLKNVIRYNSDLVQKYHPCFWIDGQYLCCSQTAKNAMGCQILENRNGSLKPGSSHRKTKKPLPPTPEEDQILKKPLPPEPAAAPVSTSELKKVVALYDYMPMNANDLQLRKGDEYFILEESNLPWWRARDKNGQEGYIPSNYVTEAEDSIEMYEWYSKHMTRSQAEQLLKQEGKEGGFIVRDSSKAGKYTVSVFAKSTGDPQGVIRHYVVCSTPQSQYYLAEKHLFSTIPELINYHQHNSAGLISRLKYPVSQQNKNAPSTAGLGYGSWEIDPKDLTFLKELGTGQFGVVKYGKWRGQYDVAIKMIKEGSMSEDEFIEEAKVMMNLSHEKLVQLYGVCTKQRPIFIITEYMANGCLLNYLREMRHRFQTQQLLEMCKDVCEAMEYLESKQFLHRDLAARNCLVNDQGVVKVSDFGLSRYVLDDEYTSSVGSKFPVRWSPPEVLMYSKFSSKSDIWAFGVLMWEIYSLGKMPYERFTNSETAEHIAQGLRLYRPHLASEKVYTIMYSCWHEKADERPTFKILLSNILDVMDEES
Sequence of Fms (P07333 20-972): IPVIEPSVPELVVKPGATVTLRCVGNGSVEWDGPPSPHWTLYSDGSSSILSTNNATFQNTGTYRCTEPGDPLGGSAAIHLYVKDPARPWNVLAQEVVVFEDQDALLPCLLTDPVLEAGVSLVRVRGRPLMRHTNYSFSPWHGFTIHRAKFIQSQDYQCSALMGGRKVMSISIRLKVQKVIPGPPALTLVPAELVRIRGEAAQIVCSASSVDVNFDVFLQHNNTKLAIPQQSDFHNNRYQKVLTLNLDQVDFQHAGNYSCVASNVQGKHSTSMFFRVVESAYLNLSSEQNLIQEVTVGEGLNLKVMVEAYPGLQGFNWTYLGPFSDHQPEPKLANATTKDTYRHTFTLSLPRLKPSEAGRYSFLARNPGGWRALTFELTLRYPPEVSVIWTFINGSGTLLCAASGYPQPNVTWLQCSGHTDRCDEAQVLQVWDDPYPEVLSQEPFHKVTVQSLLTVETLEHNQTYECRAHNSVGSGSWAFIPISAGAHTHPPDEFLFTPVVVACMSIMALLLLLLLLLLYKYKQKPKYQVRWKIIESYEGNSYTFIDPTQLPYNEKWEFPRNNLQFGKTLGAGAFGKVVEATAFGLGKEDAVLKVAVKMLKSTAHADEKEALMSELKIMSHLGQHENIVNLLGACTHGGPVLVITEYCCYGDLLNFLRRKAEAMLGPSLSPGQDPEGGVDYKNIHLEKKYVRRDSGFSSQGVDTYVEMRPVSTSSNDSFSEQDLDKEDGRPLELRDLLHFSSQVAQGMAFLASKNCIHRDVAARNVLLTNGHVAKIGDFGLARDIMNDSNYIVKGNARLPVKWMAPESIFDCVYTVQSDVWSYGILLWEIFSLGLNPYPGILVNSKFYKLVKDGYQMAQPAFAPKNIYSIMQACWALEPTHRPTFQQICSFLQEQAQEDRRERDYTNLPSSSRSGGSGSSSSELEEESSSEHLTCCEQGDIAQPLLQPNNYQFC
Sequence of Kdr (P35968 20-1356): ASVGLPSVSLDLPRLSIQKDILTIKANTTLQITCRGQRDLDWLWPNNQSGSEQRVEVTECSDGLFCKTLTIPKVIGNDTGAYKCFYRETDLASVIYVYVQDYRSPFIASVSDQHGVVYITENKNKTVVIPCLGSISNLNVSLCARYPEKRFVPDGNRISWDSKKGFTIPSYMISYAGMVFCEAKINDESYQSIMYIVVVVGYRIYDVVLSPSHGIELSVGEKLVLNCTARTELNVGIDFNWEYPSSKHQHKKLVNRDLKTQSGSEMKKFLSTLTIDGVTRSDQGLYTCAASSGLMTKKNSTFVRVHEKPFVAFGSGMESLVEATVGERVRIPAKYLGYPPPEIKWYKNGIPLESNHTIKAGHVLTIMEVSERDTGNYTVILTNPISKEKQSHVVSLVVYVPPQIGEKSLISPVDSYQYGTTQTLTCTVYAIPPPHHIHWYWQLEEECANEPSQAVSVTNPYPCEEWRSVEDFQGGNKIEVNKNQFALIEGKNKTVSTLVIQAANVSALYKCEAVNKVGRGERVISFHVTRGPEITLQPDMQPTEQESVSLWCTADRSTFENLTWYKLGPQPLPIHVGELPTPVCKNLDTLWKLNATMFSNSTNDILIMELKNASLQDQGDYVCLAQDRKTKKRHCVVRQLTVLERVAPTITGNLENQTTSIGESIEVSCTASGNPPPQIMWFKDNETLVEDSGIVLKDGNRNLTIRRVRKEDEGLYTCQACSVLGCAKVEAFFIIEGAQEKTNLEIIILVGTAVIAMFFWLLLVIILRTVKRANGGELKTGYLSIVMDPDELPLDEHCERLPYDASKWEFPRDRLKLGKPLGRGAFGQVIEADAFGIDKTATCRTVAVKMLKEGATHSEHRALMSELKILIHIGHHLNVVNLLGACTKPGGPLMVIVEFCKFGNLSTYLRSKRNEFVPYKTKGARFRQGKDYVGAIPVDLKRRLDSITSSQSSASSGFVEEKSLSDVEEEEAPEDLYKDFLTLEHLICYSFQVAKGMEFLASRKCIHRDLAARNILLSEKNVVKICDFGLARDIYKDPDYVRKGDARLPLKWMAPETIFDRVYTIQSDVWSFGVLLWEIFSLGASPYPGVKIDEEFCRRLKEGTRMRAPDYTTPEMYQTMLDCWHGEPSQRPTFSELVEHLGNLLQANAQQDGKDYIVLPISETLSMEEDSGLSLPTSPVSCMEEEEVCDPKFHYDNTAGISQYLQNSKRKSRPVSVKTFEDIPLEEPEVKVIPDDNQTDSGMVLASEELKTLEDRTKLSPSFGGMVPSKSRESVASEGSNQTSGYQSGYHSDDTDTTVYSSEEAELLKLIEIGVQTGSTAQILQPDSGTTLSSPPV
Sequence of C-Raf (P04049 whole entry): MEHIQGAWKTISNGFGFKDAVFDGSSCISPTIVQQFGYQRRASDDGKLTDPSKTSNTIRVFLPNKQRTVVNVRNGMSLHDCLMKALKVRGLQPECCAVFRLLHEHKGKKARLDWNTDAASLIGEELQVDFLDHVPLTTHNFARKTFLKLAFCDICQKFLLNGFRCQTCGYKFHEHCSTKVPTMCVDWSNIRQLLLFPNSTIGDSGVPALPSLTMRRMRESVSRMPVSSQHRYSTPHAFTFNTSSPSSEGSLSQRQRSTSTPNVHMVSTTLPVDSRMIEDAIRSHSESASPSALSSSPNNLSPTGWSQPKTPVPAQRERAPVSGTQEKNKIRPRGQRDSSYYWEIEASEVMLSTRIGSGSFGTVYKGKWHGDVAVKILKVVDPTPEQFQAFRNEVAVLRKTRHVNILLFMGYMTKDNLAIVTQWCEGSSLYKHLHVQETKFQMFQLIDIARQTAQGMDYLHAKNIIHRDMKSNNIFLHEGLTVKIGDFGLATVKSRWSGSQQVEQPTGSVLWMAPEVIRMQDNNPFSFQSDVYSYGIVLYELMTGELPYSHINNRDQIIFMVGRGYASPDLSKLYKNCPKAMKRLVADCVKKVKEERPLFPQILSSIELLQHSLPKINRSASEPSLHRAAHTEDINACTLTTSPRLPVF
Sequence of B-Raf (P15056 whole entry): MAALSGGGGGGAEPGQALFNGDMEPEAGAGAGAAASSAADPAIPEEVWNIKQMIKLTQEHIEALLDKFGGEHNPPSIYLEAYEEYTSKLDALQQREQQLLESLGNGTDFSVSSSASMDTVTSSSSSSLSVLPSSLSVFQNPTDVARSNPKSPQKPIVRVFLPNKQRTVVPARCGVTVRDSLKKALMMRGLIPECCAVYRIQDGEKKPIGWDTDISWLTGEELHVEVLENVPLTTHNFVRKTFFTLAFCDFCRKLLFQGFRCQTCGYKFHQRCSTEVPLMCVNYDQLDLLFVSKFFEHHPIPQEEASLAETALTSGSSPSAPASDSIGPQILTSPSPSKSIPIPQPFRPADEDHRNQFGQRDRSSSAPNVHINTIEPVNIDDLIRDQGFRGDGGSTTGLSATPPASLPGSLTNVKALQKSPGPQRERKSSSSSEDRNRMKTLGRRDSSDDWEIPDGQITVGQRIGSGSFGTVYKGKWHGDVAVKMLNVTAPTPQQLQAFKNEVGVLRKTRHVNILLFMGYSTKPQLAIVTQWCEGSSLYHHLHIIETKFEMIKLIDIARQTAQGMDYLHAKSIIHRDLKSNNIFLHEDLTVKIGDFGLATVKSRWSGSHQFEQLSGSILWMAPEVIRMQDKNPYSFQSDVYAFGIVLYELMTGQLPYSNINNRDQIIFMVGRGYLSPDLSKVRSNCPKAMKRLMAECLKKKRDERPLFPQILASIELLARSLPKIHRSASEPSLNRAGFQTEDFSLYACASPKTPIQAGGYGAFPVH
Sequence of B-Raf V600E (P15056 whole entry V600E): as the sequence (P15056 whole entry) above, with V600E counted along it

N#Cc1cnc2[nH]cc(C(=O)c3cccc(NS(=O)(=O)c4ccccc4F)c3F)c2c1 [P-2051, N-[3-(5-Cyano-1H-pyrrolo[2,3-b]pyridine-3-carbonyl)-2-fluoro-phenyl]-2-fluoro-benzenesulfonamide]
not listed: Fms
≤ 10 µM: all other assays above

N#Cc1cnc2[nH]cc(C(=O)c3cccc(NS(=O)(=O)c4cc(F)ccc4F)c3F)c2c1 [P-2052, N-[3-(5-Cyano-1H-pyrrolo[2,3-b]pyridine-3-carbonyl)-2-fluoro-phenyl]-2,5-difluoro-benzenesulfonamide]
not listed: Fms
≤ 10 µM: all other assays above

N#Cc1cnc2[nH]cc(C(=O)c3cccc(NS(=O)(=O)c4cccc(F)c4)c3F)c2c1 [P-2053, N-[3-(5-Cyano-1H-pyrrolo[2,3-b]pyridine-3-carbonyl)-2-fluoro-phenyl]-3-fluoro-benzenesulfonamide]
not listed: Kdr | Kit | Fms
≤ 10 µM: all other assays above

N#Cc1cnc2[nH]cc(C(=O)c3cccc(NS(=O)(=O)c4c(F)cccc4F)c3F)c2c1 [P-2054, N-[3-(5-Cyano-1H-pyrrolo[2,3-b]pyridine-3-carbonyl)-2-fluoro-phenyl]-2,6-difluoro-benzenesulfonamide]
not listed: Fms
≤ 10 µM: all other assays above

N#Cc1cnc2[nH]cc(C(=O)c3cccc(NS(=O)(=O)c4ccccn4)c3F)c2c1 [P-2087, Pyridine-2-sulfonic acid [3-(5-cyano-1H-pyrrolo[2,3-b]pyridine-3-carbonyl)-2-fluoro-phenyl]-amide]
not listed: Kdr | Kit | Fms
≤ 10 µM: all other assays above

O=C(c1cc(NS(=O)(=O)c2cccc(F)c2)ccc1F)c1c[nH]c2ncccc12 [P-2120, 3-Fluoro-N-[4-fluoro-3-(1H-pyrrolo[2,3-b]pyridine-3-carbonyl)-phenyl]-benzenesulfonamide]
not listed: B-Raf | Src | C-Raf
≤ 10 µM: all other assays above

Cn1cc(-c2cnc3[nH]cc(C(=O)c4cccc(NS(=O)(=O)c5ccc(Cl)cc5)c4)c3c2)cn1 [P-2129, 4-Chloro-N-{3-[5-(1-methyl-1H-pyrazol-4-yl)-1H-pyrrolo[2,3-b]pyridine-3-carbonyl]-phenyl}-benzenesulfonamide]
not listed: B-Raf | Src | C-Raf
≤ 10 µM: all other assays above

Cn1cc(-c2cnc3[nH]cc(C(=O)c4cccc(NS(=O)(=O)c5ccc(F)cc5)c4)c3c2)cn1 [P-2130, 4-Fluoro-N-{3-[5-(1-methyl-1H-pyrazol-4-yl)-1H-pyrrolo[2,3-b]pyridine-3-carbonyl]-phenyl}-benzenesulfonamide]
not listed: B-Raf | Src | C-Raf
≤ 10 µM: all other assays above

Cn1cc(-c2cnc3[nH]cc(C(=O)c4cccc(NS(=O)(=O)c5cccc(C(F)(F)F)c5)c4)c3c2)cn1 [P-2131, N-{3-[5-(1-Methyl-1H-pyrazol-4-yl)-1H-pyrrolo[2,3-b]pyridine-3-carbonyl]-phenyl}-3-trifluoromethyl-benzenesulfonamide]
not listed: B-Raf | Src | C-Raf
≤ 10 µM: all other assays above

Cn1cc(-c2cnc3[nH]cc(C(=O)c4cccc(NS(=O)(=O)c5cccc(Cl)c5)c4)c3c2)cn1 [P-2134, 3-Chloro-N-{3-[5-(1-methyl-1H-pyrazol-4-yl)-1H-pyrrolo[2,3-b]pyridine-3-carbonyl]-phenyl}-benzenesulfonamide]
not listed: B-Raf | Src | C-Raf
≤ 10 µM: all other assays above

Cn1cc(-c2cnc3[nH]cc(C(=O)c4cccc(NS(=O)(=O)c5cccc(F)c5)c4)c3c2)cn1 [P-2136, 3-Fluoro-N-{3-[5-(1-methyl-1H-pyrazol-4-yl)-1H-pyrrolo[2,3-b]pyridine-3-carbonyl]-phenyl}-benzenesulfonamide]
not listed: B-Raf | Src | C-Raf
≤ 10 µM: all other assays above

CCCS(=O)(=O)Nc1ccc(F)c(C(=O)c2c[nH]c3ncc(-c4ccc(NC(C)=O)cc4)cc23)c1F [P-2161, N-(4-{3-[2,6-Difluoro-3-(propane-1-sulfonylamino)-benzoyl]-1H-pyrrolo[2,3-b]pyridin-5-yl}-phenyl)-acetamide]
not listed: B-Raf | C-Raf
≤ 10 µM: all other assays above

CCCS(=O)(=O)Nc1ccc(F)c(C(=O)c2c[nH]c3ncc(-c4cnn(CCN5CCOCC5)c4)cc23)c1F [P-2177, Propane-1-sulfonic acid (2,4-difluoro-3-{5-[1-(2-morpholin-4-yl-ethyl)-1H-pyrazol-4-yl]-1H-pyrrolo[2,3-b]pyridine-3-carbonyl}-phenyl)-amide]
not listed: C-Raf
≤ 10 µM: all other assays above

COc1ncc(-c2cnc3[nH]cc(C(=O)c4c(F)ccc(NS(=O)(=O)N5CCCC5)c4F)c3c2)cn1 [P-2400]
not listed: Fms
≤ 10 µM: all other assays above

N#Cc1cnc2[nH]cc(C(=O)c3cccc(NS(=O)(=O)CC(F)(F)F)c3F)c2c1 [P-2414, 2,2,2-Trifluoro-ethanesulfonic acid [3-(5-cyano-1H-pyrrolo[2,3-b]pyridine-3-carbonyl)-2-fluoro-phenyl]-amide]
not listed: Kdr | Kit | Fms
≤ 10 µM: all other assays above

O=C(c1cc(NS(=O)(=O)N2CCCCC2)ccc1F)c1c[nH]c2ncccc12 [P-2440, Piperidine-1-sulfonic acid [4-fluoro-3-(1H-pyrrolo[2,3-b]pyridine-3-carbonyl)-phenyl]-amide]
≤ 10 µM: Btk | Fms | TEC

CCCS(=O)(=O)Nc1cccc(C(=O)c2c[nH]c3ncc(-c4cnn(C)c4)cc23)c1 [P-2454, Propane-1-sulfonic acid {3-[5-(1-methyl-1H-pyrazol-4-yl)-1H-pyrrolo[2,3-b]pyridine-3-carbonyl]-phenyl}-amide]
not listed: B-Raf | Src | C-Raf
≤ 10 µM: all other assays above

CCCCS(=O)(=O)Nc1cccc(C(=O)c2c[nH]c3ncc(-c4cnn(C)c4)cc23)c1 [P-2455, Butane-1-sulfonic acid {3-[5-(1-methyl-1H-pyrazol-4-yl)-1H-pyrrolo[2,3-b]pyridine-3-carbonyl]-phenyl}-amide]
not listed: B-Raf | Src | C-Raf
≤ 10 µM: all other assays above

O=C(c1cc(NS(=O)(=O)N2CCCCC2)ccc1F)c1c[nH]c2ncc(Cl)cc12 [P-2468, Piperidine-1-sulfonic acid [3-(5-chloro-1H-pyrrolo[2,3-b]pyridine-3-carbonyl)-4-fluoro-phenyl]-amide]
not listed: B-Raf | Src | C-Raf
≤ 10 µM: all other assays above

O=C(c1cccc(NS(=O)(=O)N2CCCCC2)c1)c1c[nH]c2ncc(Cl)cc12 [P-2471, Piperidine-1-sulfonic acid [3-(5-chloro-1H-pyrrolo[2,3-b]pyridine-3-carbonyl)-phenyl]-amide]
≤ 10 µM: Btk | Fms | Kdr | Kit | TEC
